From PubChem BioAssay (NCI)
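1) Cells in 96-well plates. 2) Compound, 48 h, 5 concentrations. 3) Linear interpolation between surrounding doses. 4) Unreached endpoint = highest concentration. TGI: concentration producing complete growth inhibition.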

Legend:
Test in all cases: NCI anticancer screen, dose series, 48 h
[1] = tested on: BT-549 breast
[2] = tested on: SNB-75 CNS
[3] = tested on: SW-620 colon
[4] = tested on: HCT-15 colon
[5] = tested on: OVCAR-5 ovarian
[6] = tested on: CAKI-1 renal
[7] = tested on: SR leukemia
[8] = tested on: SN12C renal
[9] = tested on: MDA-MB-231 breast
[10] = tested on: NCI-H522 lung
[11] = tested on: U251 CNS
[12] = tested on: MCF7 breast
[13] = tested on: SK-OV-3 ovarian
[14] = tested on: MDA-MB-435

Structure (SMILES)	TGI [1] [µM]	TGI [2] [µM]	TGI [3] [µM]	TGI [4] [µM]	TGI [5] [µM]	TGI [6] [µM]	TGI [7] [µM]	TGI [8] [µM]	TGI [9] [µM]	TGI [10] [µM]	TGI [11] [µM]	TGI [12] [µM]	TGI [13] [µM]	TGI [14] [µM]
COC(=O)c1cc(C)ccc1/C=C1\Cc2cc(C)c(C)cc2C1=O	> 100	69.5	> 100	> 100	> 100	> 100	> 100	> 100	> 100	> 100				
CCc1cc(-c2nsc(=O)o2)c(S(=O)(=O)CC)s1		> 100	> 100	> 100	> 100	> 100	> 100	> 100		57.2	> 100	> 100	> 100	> 100
CN(C)CCOc1cc2c(c3ccccc13)-c1ccccc1C2=O		4.64	3.87	4.19	7.05	6.31		7.43		3.08	6.58	5.6	24.6	
O=C1O/C(=C\c2ccc(O)c(Br)c2)C(c2ccc(O)cc2)=C1Cl		> 100	> 100	> 100	> 100	> 100	> 100			68.6	> 100	49.5	> 100	> 100
COc1ccccc1C1C2=C(COC2=O)OC(C)(C)Oc2cc3c(cc21)OCO3 (stereo not given)		8.42	> 49.8	> 100	> 100	> 29.8	> 100	> 91.9	> 32.6	> 32	> 89.3	> 31	> 100	
CS(=O)(=O)c1nc(N)nc2nc[nH]c12			> 100	> 100	> 100	> 100	> 100	> 100		> 100	> 100		> 100	
CCSC(=Nc1ccccc1)SC		> 100	> 100	> 100	> 100	> 100		> 100		> 100	> 100		> 100	
N#CN=Nc1cc(Cl)c(N=NC#N)cc1Cl		> 100	> 100	> 100	> 100		> 100	> 100		> 100	> 100		> 100	
CC1=CC(C)C(C)N(CCNC(=O)Nc2ccccc2)c2ccccc21 (stereo not given)		82.4	83.6	72	92.6	49.6	46.4	> 100	31.1	40.2		50.3	65.1	75.1
CCCCOC(=O)CN1C(=O)c2ccccc2C1=O		> 100	> 100	> 100	> 100	> 100	> 100			> 100	> 100		> 100	
CC(N)Cc1cccc(C(F)(F)F)c1 (stereo not given)		> 100	> 100	> 100	> 100	> 100	> 100	> 100		> 100	> 100		> 100	
O=C1CN(c2cccc(C(F)(F)F)c2)C(=O)CN1NCNN1CC(=O)N(c2cccc(C(F)(F)F)c2)CC1=O		> 100	> 100	> 100	> 100		> 100	> 100	> 100	> 100	> 100	> 100	> 100	> 100
O=C(Sc1c(-c2ccccc2)c(=O)n(-c2ccccc2)c(=S)n1-c1ccccc1)c1ccc(Cl)cc1		> 100	> 100	> 100	> 100	> 100	> 100	> 100	> 100	> 100	> 100	> 100	> 100	> 100
CC1(C)C(O)c2ccccc2OC1N1CCN(C2Oc3ccccc3C(O)C2(C)C)CC1 (stereo not given)		> 100	> 100	> 100	> 100	> 100	> 100	> 100	> 100	> 100	> 100	> 100	> 100	> 100
Cc1nc(Nc2nnc(-c3cc([N+](=O)[O-])cc([N+](=O)[O-])c3C)o2)sc1C(=O)CC(=O)Cc1nc2ccc(Cl)cc2[nH]c1=O		> 100	> 100	> 100	> 100	> 100	> 100	> 100		> 100	> 100		> 100	
C[C@]12CCC3c4ccc(OC(=O)c5ccccc5)cc4CC[C@H]3C1CC[C@@H]2OC(=O)C12OC1CCC2=O (stereo not given in full)		19.1	4.86	31.3	21.4		13.5	11.9		10.8	17.4		33.4	
CC(=O)c1ccc(-c2oc(-c3ccccc3)cc2-c2ccc3c(c2)OCO3)s1		> 100	> 100		> 100	5.07	> 100	> 100			> 100	> 100	> 100	6.08
